Source: patent US8975232B2, “Macrocyclic kinase inhibitors and uses thereof” (President and Fellows of Harvard College, priority 2010, dated 2015)

Columns and labels:
Type in all cases: biochemical
[1] = test system: panel of 44 human kinases; test: Kinase selectivity panel at 5 μM, Invitrogen SelectScreen; conditions: includes all nine Src-family kinases
Description: (§1) Src IC50 determinations and single-point inhibition measurements were performed using Invitrogen's Z′-LYTE Tyr 02 assay kit according to the manufacturer's protocols. All kinase assays were performed at ATP concentrations near KM,ATP values, except where noted otherwise. Active human Src kinase was obtained from Millipore. For kinome profiling and IC50 determinations against non-Src kinases, compounds were submitted to Invitrogen's SelectScreen Kinase Profiling Service.

ABL1 = ABL1 (Homo sapiens, UniProt P00519); test: SelectScreen kinase profiling; conditions: ABL1; 5 μM
Description: as §1

AKT1 (PKB alpha) = AKT1 (PKB alpha) (Homo sapiens, UniProt P31749); test: SelectScreen kinase profiling; conditions: 5 μM
Description: as §1

AMPK A1/B1/G1 = AMPK A1/B1/G1 (Homo sapiens, UniProt Q13131); test: SelectScreen kinase profiling; conditions: 5 μM
Description: as §1

AURKA (Aurora A) = target: T1, AURKA (Aurora A) (Homo sapiens, UniProt O14965); test: SelectScreen kinase profiling; conditions: AURKA (Aurora A); 5 μM
T1 sequence (O14965 1-403): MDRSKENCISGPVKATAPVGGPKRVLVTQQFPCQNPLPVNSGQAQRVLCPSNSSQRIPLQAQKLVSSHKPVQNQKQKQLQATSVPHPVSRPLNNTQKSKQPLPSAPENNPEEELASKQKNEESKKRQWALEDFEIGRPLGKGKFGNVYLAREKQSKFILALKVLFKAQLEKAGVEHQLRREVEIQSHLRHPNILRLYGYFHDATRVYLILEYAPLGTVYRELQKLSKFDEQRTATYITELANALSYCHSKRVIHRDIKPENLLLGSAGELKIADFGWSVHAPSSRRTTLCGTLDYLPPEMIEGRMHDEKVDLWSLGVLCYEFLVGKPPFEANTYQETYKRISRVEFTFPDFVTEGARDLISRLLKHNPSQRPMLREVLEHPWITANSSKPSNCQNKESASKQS
Description: as §1

AURKB (Aurora B) = AURKB (Aurora B) (Homo sapiens, UniProt Q96GD4); test: SelectScreen kinase profiling; conditions: AURKB (Aurora B); 5 μM
Description: as §1

AURKC (Aurora C) = AURKC (Aurora C) (Homo sapiens, UniProt Q9UQB9); test: SelectScreen kinase profiling; conditions: 5 μM
Description: as §1

BLK = BLK (Homo sapiens, UniProt P51451); test: SelectScreen kinase profiling; conditions: 5 μM
Description: as §1

BTK = BTK (Homo sapiens, UniProt Q06187); test: SelectScreen kinase profiling; conditions: 5 μM
Description: as §1

CHEK1 (CHK1) = CHEK1 (CHK1) (Homo sapiens, UniProt O14757); test: SelectScreen kinase profiling; conditions: 5 μM
Description: as §1

ERBB4 (HER4) = ERBB4 (HER4) (Homo sapiens, UniProt Q15303); test: SelectScreen kinase profiling; conditions: 5 μM
Description: as §1

FGR = FGR (Homo sapiens, UniProt P09769); test: SelectScreen kinase profiling; conditions: FGR; 5 μM
Description: as §1

FYN = FYN (Homo sapiens, UniProt P06241); test: SelectScreen kinase profiling; conditions: FYN; 5 μM
Description: as §1

HCK = HCK (Homo sapiens, UniProt P08631); test: SelectScreen kinase profiling; conditions: HCK; 5 μM
Description: as §1

IKBKB (IKK beta) = IKBKB (IKK beta) (Homo sapiens, UniProt O14920); test: SelectScreen kinase profiling; conditions: 5 μM
Description: as §1

JAK3 = JAK3 (Homo sapiens, UniProt P52333); test: SelectScreen kinase profiling; conditions: 5 μM
Description: as §1

LCK = LCK (Homo sapiens, UniProt P06239); test: SelectScreen kinase profiling; conditions: 5 μM
Description: as §1

LYN A = LYN A (Homo sapiens, UniProt P07948); test: SelectScreen kinase profiling; conditions: 5 μM
Description: as §1

LYN B = LYN B (Homo sapiens, UniProt P07948); test: SelectScreen kinase profiling; conditions: 5 μM
Description: as §1

MAP2K6 (MKK6) = MAP2K6 (MKK6) (Homo sapiens, UniProt P52564); test: SelectScreen kinase profiling; conditions: 5 μM
Description: as §1

MAP4K4 (HGK) = MAP4K4 (HGK) (Homo sapiens, UniProt O95819); test: SelectScreen kinase profiling; conditions: 5 μM
Description: as §1

MAPK14 (p38 alpha) = MAPK14 (p38 alpha) (Homo sapiens, UniProt Q16539); test: SelectScreen kinase profiling; conditions: 5 μM
Description: as §1

[2] = target: MAPK14 (p38 alpha) Direct (Homo sapiens, UniProt Q16539); test: SelectScreen kinase profiling; conditions: 5 μM
Description: as §1

PAK4 = PAK4 (Homo sapiens, UniProt O96013); test: SelectScreen kinase profiling; conditions: 5 μM
Description: as §1

RET = RET (Homo sapiens, UniProt P07949); test: SelectScreen kinase profiling; conditions: 5 μM
Description: as §1

ROCK1 = ROCK1 (Homo sapiens, UniProt Q13464); test: SelectScreen kinase profiling; conditions: 5 μM
Description: as §1

RPS6KA3 (RSK2) = RPS6KA3 (RSK2) (Homo sapiens, UniProt P51812); test: SelectScreen kinase profiling; conditions: 5 μM
Description: as §1

Sequence of AKT1 (PKB alpha) (P31749 whole entry): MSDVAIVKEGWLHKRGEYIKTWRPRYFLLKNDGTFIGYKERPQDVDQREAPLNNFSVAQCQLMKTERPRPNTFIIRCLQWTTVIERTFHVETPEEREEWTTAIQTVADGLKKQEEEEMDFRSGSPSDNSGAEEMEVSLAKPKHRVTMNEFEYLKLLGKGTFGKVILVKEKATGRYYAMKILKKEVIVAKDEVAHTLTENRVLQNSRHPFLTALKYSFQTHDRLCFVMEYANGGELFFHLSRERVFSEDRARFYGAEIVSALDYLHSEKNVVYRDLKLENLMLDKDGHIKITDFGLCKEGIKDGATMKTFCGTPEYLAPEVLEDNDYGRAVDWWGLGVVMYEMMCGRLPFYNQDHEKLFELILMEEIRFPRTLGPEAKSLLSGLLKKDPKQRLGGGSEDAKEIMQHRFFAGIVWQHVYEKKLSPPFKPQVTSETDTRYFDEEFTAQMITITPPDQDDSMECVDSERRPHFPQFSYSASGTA
Sequence of MAPK14 (p38 alpha) (Q16539 whole entry): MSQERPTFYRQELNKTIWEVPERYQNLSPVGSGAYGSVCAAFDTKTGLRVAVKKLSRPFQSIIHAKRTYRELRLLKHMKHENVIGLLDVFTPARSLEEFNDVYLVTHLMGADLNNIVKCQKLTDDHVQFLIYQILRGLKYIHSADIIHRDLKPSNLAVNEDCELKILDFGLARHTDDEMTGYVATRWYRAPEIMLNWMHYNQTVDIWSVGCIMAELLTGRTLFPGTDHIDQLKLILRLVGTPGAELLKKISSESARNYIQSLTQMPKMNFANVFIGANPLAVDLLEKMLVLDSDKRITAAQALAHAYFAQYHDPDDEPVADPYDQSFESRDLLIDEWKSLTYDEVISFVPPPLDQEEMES
Sequence of MAPK14 (p38 alpha) Direct (Q16539 whole entry): as above
Sequence of LCK (P06239 whole entry): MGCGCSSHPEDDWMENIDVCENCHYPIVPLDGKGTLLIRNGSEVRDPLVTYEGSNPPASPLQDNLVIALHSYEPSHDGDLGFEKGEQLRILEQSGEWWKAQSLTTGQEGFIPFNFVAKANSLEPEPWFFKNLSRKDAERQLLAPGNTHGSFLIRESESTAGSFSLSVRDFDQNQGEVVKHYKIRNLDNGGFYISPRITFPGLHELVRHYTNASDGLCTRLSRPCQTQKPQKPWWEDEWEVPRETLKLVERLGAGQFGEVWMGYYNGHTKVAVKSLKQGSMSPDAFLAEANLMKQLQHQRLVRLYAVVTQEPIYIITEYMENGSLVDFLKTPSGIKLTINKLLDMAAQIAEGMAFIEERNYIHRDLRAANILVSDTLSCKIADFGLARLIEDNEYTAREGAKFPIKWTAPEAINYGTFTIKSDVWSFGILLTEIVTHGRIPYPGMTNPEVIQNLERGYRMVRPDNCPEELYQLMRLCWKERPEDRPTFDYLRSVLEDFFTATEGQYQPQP
Sequence of LYN A (P07948 whole entry): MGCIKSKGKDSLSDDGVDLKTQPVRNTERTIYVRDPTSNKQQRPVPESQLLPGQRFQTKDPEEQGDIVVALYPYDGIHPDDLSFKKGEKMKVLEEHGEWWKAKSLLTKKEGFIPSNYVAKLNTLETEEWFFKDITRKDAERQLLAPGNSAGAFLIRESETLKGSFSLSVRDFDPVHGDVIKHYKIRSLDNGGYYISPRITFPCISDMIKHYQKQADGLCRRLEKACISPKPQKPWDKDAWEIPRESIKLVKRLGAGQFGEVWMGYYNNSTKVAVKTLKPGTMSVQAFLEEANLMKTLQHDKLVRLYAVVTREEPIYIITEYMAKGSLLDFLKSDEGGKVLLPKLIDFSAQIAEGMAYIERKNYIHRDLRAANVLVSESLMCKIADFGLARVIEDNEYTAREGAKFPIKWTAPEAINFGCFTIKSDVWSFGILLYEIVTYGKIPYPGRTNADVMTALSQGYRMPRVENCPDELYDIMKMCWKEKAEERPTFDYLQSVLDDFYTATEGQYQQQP
Sequence of IKBKB (IKK beta) (O14920 whole entry): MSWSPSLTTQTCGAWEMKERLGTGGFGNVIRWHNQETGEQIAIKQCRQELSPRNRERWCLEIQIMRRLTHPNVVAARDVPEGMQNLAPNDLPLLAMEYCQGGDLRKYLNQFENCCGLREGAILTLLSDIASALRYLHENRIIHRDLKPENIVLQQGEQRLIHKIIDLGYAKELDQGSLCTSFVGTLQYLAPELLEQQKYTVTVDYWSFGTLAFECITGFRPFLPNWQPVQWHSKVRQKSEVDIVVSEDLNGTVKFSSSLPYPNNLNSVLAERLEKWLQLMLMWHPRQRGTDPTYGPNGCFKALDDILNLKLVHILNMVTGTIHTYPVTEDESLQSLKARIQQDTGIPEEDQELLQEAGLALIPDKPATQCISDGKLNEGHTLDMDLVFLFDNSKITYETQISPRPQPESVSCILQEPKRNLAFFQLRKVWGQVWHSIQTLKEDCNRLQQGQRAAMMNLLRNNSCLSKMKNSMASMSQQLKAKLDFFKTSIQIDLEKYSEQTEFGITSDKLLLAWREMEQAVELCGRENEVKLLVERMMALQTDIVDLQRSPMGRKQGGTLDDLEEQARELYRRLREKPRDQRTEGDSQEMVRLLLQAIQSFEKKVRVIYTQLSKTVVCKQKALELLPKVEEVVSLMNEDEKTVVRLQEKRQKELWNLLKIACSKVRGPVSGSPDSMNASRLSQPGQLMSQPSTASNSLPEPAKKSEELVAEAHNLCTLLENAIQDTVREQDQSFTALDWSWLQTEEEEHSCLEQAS
Sequence of ERBB4 (HER4) (Q15303 26-1308): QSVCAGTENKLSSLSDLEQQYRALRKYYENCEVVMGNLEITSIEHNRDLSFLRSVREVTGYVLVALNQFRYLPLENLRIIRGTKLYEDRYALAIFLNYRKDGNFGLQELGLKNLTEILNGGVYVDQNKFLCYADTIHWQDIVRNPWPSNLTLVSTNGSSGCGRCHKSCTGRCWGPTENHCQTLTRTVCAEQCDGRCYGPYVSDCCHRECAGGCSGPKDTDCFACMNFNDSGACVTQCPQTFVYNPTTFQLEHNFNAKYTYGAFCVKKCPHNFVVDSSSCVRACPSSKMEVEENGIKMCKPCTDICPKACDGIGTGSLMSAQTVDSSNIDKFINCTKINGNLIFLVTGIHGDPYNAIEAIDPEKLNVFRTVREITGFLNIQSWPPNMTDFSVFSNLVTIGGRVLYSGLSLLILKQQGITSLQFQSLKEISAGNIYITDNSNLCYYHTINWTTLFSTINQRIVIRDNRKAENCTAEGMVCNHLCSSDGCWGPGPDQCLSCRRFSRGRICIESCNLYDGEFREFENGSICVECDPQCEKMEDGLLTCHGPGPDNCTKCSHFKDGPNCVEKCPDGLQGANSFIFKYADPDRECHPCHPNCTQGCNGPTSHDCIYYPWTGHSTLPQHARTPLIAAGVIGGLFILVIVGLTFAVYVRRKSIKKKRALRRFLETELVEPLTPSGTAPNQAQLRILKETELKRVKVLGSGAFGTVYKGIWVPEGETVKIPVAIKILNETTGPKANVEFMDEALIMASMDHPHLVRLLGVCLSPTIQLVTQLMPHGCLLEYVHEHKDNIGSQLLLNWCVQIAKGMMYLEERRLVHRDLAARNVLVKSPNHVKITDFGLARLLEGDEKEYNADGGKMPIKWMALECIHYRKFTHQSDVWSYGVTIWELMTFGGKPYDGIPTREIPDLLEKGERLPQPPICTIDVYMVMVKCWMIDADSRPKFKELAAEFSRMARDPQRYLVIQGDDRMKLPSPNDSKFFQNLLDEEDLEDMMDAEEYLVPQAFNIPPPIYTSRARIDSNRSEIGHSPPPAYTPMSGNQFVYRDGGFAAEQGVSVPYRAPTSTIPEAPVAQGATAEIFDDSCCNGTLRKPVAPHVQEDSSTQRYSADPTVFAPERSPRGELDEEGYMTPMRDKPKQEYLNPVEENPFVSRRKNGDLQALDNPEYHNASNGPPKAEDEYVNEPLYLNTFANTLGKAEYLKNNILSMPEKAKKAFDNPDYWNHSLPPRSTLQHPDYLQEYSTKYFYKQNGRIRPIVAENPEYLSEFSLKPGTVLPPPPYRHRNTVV
Sequence of RPS6KA3 (RSK2) (P51812 whole entry): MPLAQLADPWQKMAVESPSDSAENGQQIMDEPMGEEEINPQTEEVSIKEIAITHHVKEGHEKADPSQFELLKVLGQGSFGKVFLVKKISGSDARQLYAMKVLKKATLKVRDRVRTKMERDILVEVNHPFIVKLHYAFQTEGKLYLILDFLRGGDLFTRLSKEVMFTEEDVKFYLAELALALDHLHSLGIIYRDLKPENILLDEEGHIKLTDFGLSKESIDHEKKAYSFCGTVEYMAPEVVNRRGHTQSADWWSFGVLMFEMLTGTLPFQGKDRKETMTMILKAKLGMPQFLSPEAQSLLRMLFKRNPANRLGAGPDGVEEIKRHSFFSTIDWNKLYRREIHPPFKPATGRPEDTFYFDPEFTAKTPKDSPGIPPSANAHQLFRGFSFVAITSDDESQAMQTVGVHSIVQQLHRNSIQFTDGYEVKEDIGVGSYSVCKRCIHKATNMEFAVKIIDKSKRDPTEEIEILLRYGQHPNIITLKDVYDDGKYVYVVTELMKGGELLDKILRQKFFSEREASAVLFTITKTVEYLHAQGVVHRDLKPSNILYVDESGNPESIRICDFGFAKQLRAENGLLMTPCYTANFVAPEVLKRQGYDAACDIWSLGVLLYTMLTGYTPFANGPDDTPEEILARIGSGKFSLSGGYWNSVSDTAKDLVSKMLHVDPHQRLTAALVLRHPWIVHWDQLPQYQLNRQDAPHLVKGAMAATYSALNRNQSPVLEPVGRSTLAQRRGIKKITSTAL
Sequence of AURKC (Aurora C) (Q9UQB9 whole entry): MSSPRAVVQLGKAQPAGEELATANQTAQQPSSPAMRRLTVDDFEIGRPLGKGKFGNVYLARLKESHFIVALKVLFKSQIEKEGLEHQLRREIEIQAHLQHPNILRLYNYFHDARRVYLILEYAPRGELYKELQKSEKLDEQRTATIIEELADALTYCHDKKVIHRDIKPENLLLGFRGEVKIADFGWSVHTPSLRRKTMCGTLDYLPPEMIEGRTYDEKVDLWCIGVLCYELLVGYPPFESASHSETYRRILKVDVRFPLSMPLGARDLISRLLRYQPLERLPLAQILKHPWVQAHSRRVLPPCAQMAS

Structure (SMILES): NC(=O)[C@@H]1CCCNC(=O)[C@H](Cc2ccc([N+](=O)[O-])cc2)NC(=O)[C@H](Cc2ccco2)NC(=O)[C@H](CC2CC2)NC(=O)/C=C/C(=O)N1 [trans-A10-B1-C5-D6]
- off-target inhibition in kinase panel (in words) [1]: no significant off-target inhibition
- % inhibition (ABL1): 18%
- % inhibition (AKT1 (PKB alpha)): −7%
- % inhibition (AMPK A1/B1/G1): −1%
- % inhibition (AURKA (Aurora A)): 10%
- % inhibition (AURKB (Aurora B)): 0%
- % inhibition (AURKC (Aurora C)): 2%
- % inhibition (BLK): 10%
- % inhibition (BTK): 4%
- % inhibition (CHEK1 (CHK1)): −15%
- % inhibition (ERBB4 (HER4)): 4%
- % inhibition (FGR): 13%
- % inhibition (FYN): −1%
- % inhibition (HCK): 9%
- % inhibition (IKBKB (IKK beta)): −1%
- % inhibition (JAK3): −7%
- % inhibition (LCK): 17%
- % inhibition (LYN A): 9%
- % inhibition (LYN B): 7%
- % inhibition (MAP2K6 (MKK6)): −1%
- % inhibition (MAP4K4 (HGK)): −1%
- % inhibition (MAPK14 (p38 alpha)): 32%
- % inhibition [2]: −9%
- % inhibition (PAK4): −2%
- % inhibition (RET): 6%
- % inhibition (ROCK1): 12%
- % inhibition (RPS6KA3 (RSK2)): −4%
